What was measured:
[1] = Solubility at room temperature in water, acid and basic conditions; format: physicochemical; conditions: aqueous solution under acid conditions (free acid form), aqueous buffer, HPLC detection limit, read-out: intrinsic solubility of the free acid
Method: The solubility of 4-(3-{5-chloro-1-(diphenylmethyl)-2-[2-({[2-(trifluoromethyl)benzyl]sulfonyl}amino)ethyl]-1H-indol-3-yl}propyl)benzoic acid was measured at room temperature in water, acid and basic conditions.

[2] = tested on: carrageenan-induced paw edema; experiment: Rat carrageenan-induced paw edema (CPE) study; format: in vivo
Method: Data from a rat carrageenan-induced paw edema (CPE) study indicated the minimum efficacious exposure of 4-(3-{5-chloro-1-(diphenylmethyl)-2-[2-({[2-(trifluoromethyl)benzyl]sulfonyl}amino) ethyl]-1H-indol-3-yl}propyl)benzoic acid was 1360 ng*hr/ml.

## O=C(O)c1ccc(CCCc2c(CCNS(=O)(=O)Cc3ccccc3C(F)(F)F)n(C(c3ccccc3)c3ccccc3)c3ccc(Cl)cc23)cc1 [4-(3-{5-chloro-1-(diphenylmethyl)-2-[2-({[2-(trifluoromethyl)benzyl]sulfonyl}amino)ethyl]-1H-indol-3-yl}propyl)benzoic acid]
[1]
  solubility: < 0.031 µg/mL
[2]
  minimum efficacious exposure: 1360 ng·h/mL
